Measurements published in PubChem BioAssay AID1963980 (Molecular Pharmacology Branch, DTP, NCI, 2024).

Tested on: 475296-252-R-J1-PDC spheroid viability
Test: Anticancer human tumor 475296-252-R-J1-PDC patient-derived rectal carcinoma cell line growth inhibition [PI3K]
Conditions: spheroids with HUVEC and MSC; for IC50: curve of first compound; for viability, T/C: stronger effect = lower value
In short: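 Tumor cells grown as multi-cell spheroids with HUVEC endothelial cells and MSC fibroblast-like stroma were treated with targeted agents combined with inavolisib, alpelisib, duvelisib or copanlisib. Doses fell in half-log steps from near clinical Cmax, else from 10 microM. Viability was measured.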

[1] = second compound 0.0316 µM, first compound 0.0316 µM
[2] = second compound 0.0316 µM, first compound 0.1 µM
[3] = second compound 0.1 µM, first compound 0.0316 µM
[4] = second compound 0.1 µM, first compound 0.1 µM
[5] = second compound 0.316 µM, first compound 0.0316 µM
[6] = second compound 0.316 µM, first compound 0.1 µM
[7] = second compound 1 µM, first compound 0.0316 µM
[8] = second compound 1 µM, first compound 0.1 µM
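Also: spheroids exposed to agents for seven days before readout.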

## CC(=O)c1c(C)c2cnc(Nc3ccc(N4CCNCC4)cn3)nc2n(C2CCCC2)c1=O + CC(Nc1ncnc2nc[nH]c12)c1cc2cccc(Cl)c2c(=O)n1-c1ccccc1
Second compound 0.0316 µM
  IC50: > 100 nM
Second compound 0.1 µM
  IC50: > 100 nM
Second compound 0.316 µM
  IC50: > 100 nM
Second compound 1 µM
  IC50: > 100 nM
Second compound 3.16 µM
  IC50: > 100 nM
Second compound 10 µM
  IC50: > 100 nM
Second compound 0.0316 µM, first compound 0.000316 µM
  viability, T/C: 91.8%
Second compound 0.0316 µM, first compound 0.001 µM
  viability, T/C: 91.4%
Second compound 0.0316 µM, first compound 0.00316 µM
  viability, T/C: 87.8%
Second compound 0.0316 µM, first compound 0.01 µM
  viability, T/C: 94.2%
[1]
  viability, T/C: 96%
[2]
  viability, T/C: 102%
Second compound 0.1 µM, first compound 0.000316 µM
  viability, T/C: 97.4%
Second compound 0.1 µM, first compound 0.001 µM
  viability, T/C: 106%
Second compound 0.1 µM, first compound 0.00316 µM
  viability, T/C: 94.4%
Second compound 0.1 µM, first compound 0.01 µM
  viability, T/C: 85.8%
[3]
  viability, T/C: 105%
[4]
  viability, T/C: 112%
Second compound 0.316 µM, first compound 0.000316 µM
  viability, T/C: 105%
Second compound 0.316 µM, first compound 0.001 µM
  viability, T/C: 89.7%
Second compound 0.316 µM, first compound 0.00316 µM
  viability, T/C: 104%
Second compound 0.316 µM, first compound 0.01 µM
  viability, T/C: 97.2%
[5]
  viability, T/C: 104%
[6]
  viability, T/C: 101%
Second compound 1 µM, first compound 0.000316 µM
  viability, T/C: 99.9%
Second compound 1 µM, first compound 0.001 µM
  viability, T/C: 109%
Second compound 1 µM, first compound 0.00316 µM
  viability, T/C: 84.1%
Second compound 1 µM, first compound 0.01 µM
  viability, T/C: 95.3%
[7]
  viability, T/C: 107%
[8]
  viability, T/C: 112%
Second compound 3.16 µM, first compound 0.000316 µM
  viability, T/C: 99.2%
Second compound 3.16 µM, first compound 0.001 µM
  viability, T/C: 86.5%
Second compound 3.16 µM, first compound 0.00316 µM
  viability, T/C: 100%
Second compound 3.16 µM, first compound 0.01 µM
  viability, T/C: 97.7%
Second compound 3.16 µM, first compound 0.0316 µM
  viability, T/C: 105%
Second compound 3.16 µM, first compound 0.1 µM
  viability, T/C: 104%
Second compound 10 µM, first compound 0.000316 µM
  viability, T/C: 91.4%
Second compound 10 µM, first compound 0.001 µM
  viability, T/C: 94.8%
Second compound 10 µM, first compound 0.00316 µM
  viability, T/C: 89.9%
Second compound 10 µM, first compound 0.01 µM
  viability, T/C: 97.4%
Second compound 10 µM, first compound 0.0316 µM
  viability, T/C: 99.8%
Second compound 10 µM, first compound 0.1 µM
  viability, T/C: 86.6%

## C#Cc1c(F)ccc2cc(O)cc(-c3ncc4c(N5CC6CCC(C5)N6)nc(OCC56CCCN5CC(F)C6)nc4c3F)c12 (centres undefined) + COc1c(OCCCN2CCOCC2)ccc2c3n(c(=NC(=O)c4cnc(N)nc4)nc12)CCN3
Second compound 0.00316 µM
  IC50: 7990 nM
Second compound 0.01 µM
  IC50: 2070 nM
Second compound 0.0316 µM
  IC50: 875 nM
Second compound 0.1 µM
  IC50: 228 nM
Second compound 0.316 µM
  IC50: 134 nM
Second compound 1 µM
  IC50: < 31.6 nM
Second compound 0.00316 µM, first compound 0.0316 µM
  viability, T/C: 85.9%
Second compound 0.00316 µM, first compound 0.1 µM
  viability, T/C: 87.5%
Second compound 0.00316 µM, first compound 0.316 µM
  viability, T/C: 79.7%
Second compound 0.00316 µM, first compound 1 µM
  viability, T/C: 75.3%
Second compound 0.00316 µM, first compound 3.16 µM
  viability, T/C: 59.2%
Second compound 0.00316 µM, first compound 10 µM
  viability, T/C: 47.8%
Second compound 0.01 µM, first compound 0.0316 µM
  viability, T/C: 89.5%
Second compound 0.01 µM, first compound 0.1 µM
  viability, T/C: 90.8%
Second compound 0.01 µM, first compound 0.316 µM
  viability, T/C: 68%
Second compound 0.01 µM, first compound 1 µM
  viability, T/C: 57.2%
Second compound 0.01 µM, first compound 3.16 µM
  viability, T/C: 48.9%
Second compound 0.01 µM, first compound 10 µM
  viability, T/C: 39.9%
[1]
  viability, T/C: 80.6%
[2]
  viability, T/C: 76.4%
Second compound 0.0316 µM, first compound 0.316 µM
  viability, T/C: 65.4%
Second compound 0.0316 µM, first compound 1 µM
  viability, T/C: 46.1%
Second compound 0.0316 µM, first compound 3.16 µM
  viability, T/C: 31.1%
Second compound 0.0316 µM, first compound 10 µM
  viability, T/C: 14.3%
[3]
  viability, T/C: 67%
[4]
  viability, T/C: 68.9%
Second compound 0.1 µM, first compound 0.316 µM
  viability, T/C: 40.7%
Second compound 0.1 µM, first compound 1 µM
  viability, T/C: 23%
Second compound 0.1 µM, first compound 3.16 µM
  viability, T/C: 8.13%
Second compound 0.1 µM, first compound 10 µM
  viability, T/C: 3.98%
[5]
  viability, T/C: 64.5%
[6]
  viability, T/C: 57.4%
Second compound 0.316 µM, first compound 0.316 µM
  viability, T/C: 28.3%
Second compound 0.316 µM, first compound 1 µM
  viability, T/C: 7.5%
Second compound 0.316 µM, first compound 3.16 µM
  viability, T/C: 3.69%
Second compound 0.316 µM, first compound 10 µM
  viability, T/C: 2.51%
[7]
  viability, T/C: 45.9%
[8]
  viability, T/C: 34.2%
Second compound 1 µM, first compound 0.316 µM
  viability, T/C: 21.3%
Second compound 1 µM, first compound 1 µM
  viability, T/C: 6.91%
Second compound 1 µM, first compound 3.16 µM
  viability, T/C: 5.05%
Second compound 1 µM, first compound 10 µM
  viability, T/C: 4.55%
